Measurements published in paper PMC9564337, “Development of a Neurotensin-Derived ^68Ga-Labeled PET Ligand with High In Vivo Stability for Imaging of NTS1 Receptor-Expressing Tumors” (Cancers, 2022).
Like-named read-outs stand apart in the source and are kept apart here. Marks after values point to notes of the source that are not given here. Blank lines part the entries; values can stand above or below the compound they belong to.

Tests used:
hNTS1R [1] = target: T1, hNTS1R (Homo sapiens, UniProt P30989); assay: radioligand competition binding with [3H]UR-MK300 at intact HT-29 cells
T1 construct: intact HT-29 colon carcinoma cells expressing the hNTS1R; host or cells: HT-29 human colon carcinoma cells
From the text: Specific binding data (obtained by subtracting unspecific binding from total binding) were normalized (100% = specifically bound radioligand in the absence of competitor) and plotted over log(concentration of competitor) followed by a four-parameter logistic fit (SigmaPlot 12.5, Systat Software, San José, CA, USA) (note: in the case of 40, the lower curve plateau of the sigmoidal fit was constrained to >0). […] The Ki values from individual experiments were transformed to pKi values, followed by the calculation of mean pKi values ± SD.

hNTS2R = hNTS2R (Homo sapiens, UniProt O95665); assay: radioligand competition binding with [3H]UR-MK300 at intact HEK293T-hNTS2R cells; details: [3H]UR-MK300 c = 10 nM
Experimental: Two days prior to the experiment, white 96-well plates with clear bottoms (Costar, catalog no. 3610) were treated with poly-D-lysine hydrobromide (Sigma-Aldrich) for 10 min. The wells were washed with H2O and the plates were dried on air at rt overnight. […] After removal of the glutaraldehyde solution, the wells were washed twelve times with H2O and two times with culture medium (150–300 µL). […] On the day of the experiment, the culture medium was carefully removed using a multi-channel pipette (Transferpette S-12, Brand, Wertheim, Germany) and the cells were washed once with Dulbecco’s phosphate-buffered saline (D-PBS) containing Ca^2+ and Mg^2+ (1.8 mM CaCl2, 2.68 mM KCl, 1.47 mM KH2PO4, 3.98 mM MgSO4, 136.9 mM NaCl and 8.06 mM Na2HPO4) (200 μL, rt) followed by the careful pre-filling of the wells with 180 µL (total binding) or 160 µL (unspecific and competition binding) of D-PBS, supplemented with 1% BSA and 100 μg/mL bacitracin (Serva, Heidelberg, Germany) (in the following referred to as binding buffer). To determine total binding, 20 µL of a solution of the radioligand in binding buffer (10-fold concentrated compared to the final concentration) were added. […] To determine the displacing effect of a compound of interest, 20 µL of a solution of the respective compound in binding buffer (10-fold concentrated) and 20 µL of a 10-fold concentrated solution of the radioligand in binding buffer were added. During the incubation period of 2 h at 23 °C, the plates were gently shaken. […] The plates were sealed with a transparent sealing tape (permanent seal for microplates, PerkinElmer, product no. 1450–461) and turned upside down several times to achieve complete mixing. Prior to the measurement of the radioactivity with a MicroBeta2 plate counter (PerkinElmer), the plates were kept in the dark for at least 1 h. All experiments were performed in triplicate.

hNTS1R [2] = target: T1, hNTS1R; details: HT-29 cells, cited from earlier work
[3] = human plasma, 37 °C, cited from earlier work
hNTS1R [4] = target: T1, hNTS1R; assay: fura-2 Ca2+-assay on intact HT-29 cells; type: cell-based; details: maximal response comparable to that of 1
Experimental: The fura-2 calcium assay on intact hNTS1R-expressing HT-29 cells was performed as previously described for human erythroleukemia cells using a Perkin-Elmer LS50 B spectrofluorimeter (PerkinElmer, Rodgau, Germany). At a confluency of 80–95%, cells were trypsinized, detached from the culture flask and the assay was performed as described in the protocol.

in vitro = in vitro ADME; details: human
Experimental: The concentration of the peptides in plasma/PBS (1:2 v/v) was 80 and 4 μM (recovery determination) or 100 μM (stability tests). Data analysis was based on UV detection at 220 nm (8, 9, 11, 12, 14-18, 21-23, 38-49, and 54-57) or fluorescence detection at 275/305 nm (19 and 20). Reference samples, representing 100% recovery, were prepared in duplicate (8, 9, 11, 14-16, and 19-21) or quadruplicate (12, 17, 18, 22, 23, 38-49, and 54-57). Recovery ratios were obtained by dividing the recovery of the peptide by the recovery of IS for each individual sample (n = 3-5). The obtained recoveries and the recovery ratios are summarized in Table S2, Supplementary Materials. […] Instead, the recovery ratios determined for the previously reported, structurally closely related peptide […] [40] were used for calculating the amount of remaining intact peptide in plasma.

[5] = read-out: Ki [nM] NTS2R (converted)
[6] = read-out: pKi ± SD NTS2R (converted)
[7] = ref Schindler et al. [3] of the supplement (= [60])

T1 sequence (P30989 whole entry): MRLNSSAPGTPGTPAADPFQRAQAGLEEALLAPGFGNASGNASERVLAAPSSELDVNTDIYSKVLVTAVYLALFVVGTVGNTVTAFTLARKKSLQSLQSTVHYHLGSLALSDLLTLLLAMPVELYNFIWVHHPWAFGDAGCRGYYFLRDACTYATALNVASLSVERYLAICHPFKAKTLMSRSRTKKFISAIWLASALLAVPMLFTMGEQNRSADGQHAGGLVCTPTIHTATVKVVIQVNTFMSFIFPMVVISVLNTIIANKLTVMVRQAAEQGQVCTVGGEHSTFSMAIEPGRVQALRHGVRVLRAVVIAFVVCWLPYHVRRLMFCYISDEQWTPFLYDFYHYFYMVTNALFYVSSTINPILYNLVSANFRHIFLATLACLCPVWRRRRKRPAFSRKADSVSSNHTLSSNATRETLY
hNTS2R, sequence (O95665 whole entry): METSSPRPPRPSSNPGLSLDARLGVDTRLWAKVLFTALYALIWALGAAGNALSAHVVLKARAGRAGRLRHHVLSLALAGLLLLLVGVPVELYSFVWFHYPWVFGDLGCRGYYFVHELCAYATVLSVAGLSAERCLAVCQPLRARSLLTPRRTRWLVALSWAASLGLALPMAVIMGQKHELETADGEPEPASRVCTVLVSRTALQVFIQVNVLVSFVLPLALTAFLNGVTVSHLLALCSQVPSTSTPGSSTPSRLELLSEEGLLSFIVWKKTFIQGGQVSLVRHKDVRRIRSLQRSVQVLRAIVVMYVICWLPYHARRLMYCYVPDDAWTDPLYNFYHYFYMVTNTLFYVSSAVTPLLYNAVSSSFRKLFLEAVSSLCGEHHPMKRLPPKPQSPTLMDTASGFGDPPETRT

NTS1R Selectivity (Ratio Ki (NTS2R)/Ki (NTS1R)) (hNTS1R [1]): 11
Ki (hNTS2R; [5]): 9.9 nM
Ki (hNTS2R; [6]): 9.77 nM
SMILES: CN[C@@H](CCCNC(=N)N)C(=O)N[C@@H](CCCNC(=N)N)C(=O)N1CCC[C@H]1C(=O)N[C@@H](Cc1ccc(O)cc1)C(=O)N[C@H](C(=O)N[C@@H](CC(C)C)C(=O)O)C(C)(C)C [Compound 3, reference compound]
pKi NTS1R (hNTS1R [2]; ref Schindler et al. [40]): 9.07
% Intact Peptide in Plasma after 1 h ([3]; ref Schindler et al. [40]): >99 ^d %
% Intact Peptide in Plasma after 6 h ([3]; ref Schindler et al. [40]): >99 ^d %
% Intact Peptide in Plasma after 24 h ([3]; ref Schindler et al. [40]): 98 ^d %
% Intact Peptide in Plasma after 48 h ([3]; ref Schindler et al. [40]): 87 ^d %

NTS1R Selectivity (Ratio Ki (NTS2R)/Ki (NTS1R)) (hNTS1R [1]): 6.8
Ki (hNTS2R; [5]): 19 nM
Ki (hNTS2R; [6]): 19.1 nM
SMILES: CN[C@@H](CCCNC(N)=NC(=O)NCCCCN)C(=O)N[C@@H](CCCNC(=N)N)C(=O)N1CCC[C@H]1C(=O)N[C@@H](Cc1ccc(O)cc1)C(=O)N[C@H](C(=O)N[C@@H](CC(C)C)C(=O)O)C(C)(C)C [Compound 10]
pKi NTS1R (hNTS1R [2]; [7]): 8.55
Ki (hNTS1R [2]; ref Schindler et al. [3] of the supplement (= [60]), read-out: Ki [nM] NTS1R): 2.8 nM
% Intact Peptide in Plasma after 1 h [3, 7]: > 99%
% Intact Peptide in Plasma after 6 h [3, 7]: > 99%
% Intact Peptide in Plasma after 24 h [3, 7]: > 99%
% Intact Peptide in Plasma after 48 h [3, 7]: > 99%

SMILES: CN[C@@H](CCCNC(N)=NC(=O)NCCCCNC(=O)CN1CCN(CC(=O)O)CCN(CC(=O)O)CCN(CC(=O)O)CC1)C(=O)N[C@@H](CCCNC(=N)N)C(=O)N1CCC[C@H]1C(=O)N[C@@H](Cc1ccc(O)cc1)C(=O)N[C@H](C(=O)N[C@@H](CC(C)C)C(=O)O)C(C)(C)C [Compound 21]
NTS1R Selectivity (Ratio Ki (NTS2R)/Ki (NTS1R)) (hNTS1R [1]): 6.0
pKi ± SD NTS1R (hNTS1R [1]; [3H]UR-MK300 c = 1 nM, HT-29 cells, 23 °C): 8.01 ± 0.08
Ki (hNTS1R [1]; [3H]UR-MK300 c = 1 nM, HT-29 cells, 23 °C, read-out: Ki [nM] NTS1R (converted)): 9.9 nM
pKi ± SD NTS2R (hNTS2R): 7.25 ± 0.15
Ki (hNTS2R; [5]): 59 nM
agonistic activity at the Gq-coupled NTS1R (hNTS1R [4]): full agonists
% Intact Peptide in Plasma after 24 h (in vitro; 24 h, 100 µM, pH 7.4): 26 ± 1%
% Intact Peptide in Plasma after 48 h (in vitro; 48 h, 100 µM, pH 7.4): 4.1 ± 0.1%
remaining at 1 h, 100 µM (in vitro; plasma, pH 7.4, % Intact Peptide in Plasma after 1 h): > 99%
remaining at 6 h, 100 µM (in vitro; plasma, pH 7.4, % Intact Peptide in Plasma after 6 h): > 99%
